In the supplement of paper PMC10307832:

Experiments:
Test in all cases: relative viability (nuclei count vs DMSO), 5 days (fraction); higher = more cells survive
LCLC-97TM1 = test system: LCLC-97TM1
Summary of the method: (§1)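 Dosing by pin tool came one day after lung cancer cell lines were seeded in 1536-well plates, using either one drug or a fixed anchor-drug dose plus five library-drug doses (not always all listed) in √10 steps. After 5 days, nuclei were counted on 4× images. Relative viability is treated-well nuclei count divided by vehicle-well nuclei count, and values are medians of duplicate plates.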

RERF-LC-KJ = test system: RERF-LC-KJ
Summary of the method: as §1

LK-2 = test system: LK-2
Summary of the method: as §1

NCI-H661 = test system: NCI-H661
Summary of the method: as §1

PC-14 = test system: PC-14
Summary of the method: as §1

NCI-H1650 = test system: NCI-H1650
Summary of the method: as §1

NCI-H2342 = test system: NCI-H2342
Summary of the method: as §1

NCI-H1755 = test system: NCI-H1755
Summary of the method: as §1

EKVX = test system: EKVX
Summary of the method: as §1

NCI-H322M = test system: NCI-H322M
Summary of the method: as §1

NCI-H2228 = test system: NCI-H2228
Summary of the method: as §1

SMILES: O=c1cc(-c2cccc3c2Sc2ccccc2S3)oc(N2CCOCC2)c1 + CCNC(=O)c1noc(-c2cc(C(C)C)c(O)cc2O)c1-c1ccc(CN2CCOCC2)cc1 [Luminespib] (partner 0.01 µM)
- relative viability (LCLC-97TM1; first compound 0.08 µM): 0.815
- relative viability (LCLC-97TM1; first compound 0.253 µM): 0.733
- relative viability (LCLC-97TM1; first compound 0.8 µM): 0.807
- relative viability (LCLC-97TM1; first compound 2.53 µM): 0.71
- relative viability (LCLC-97TM1; first compound 8 µM): 0.708
- relative viability (RERF-LC-KJ; first compound 0.08 µM): 1.06
- relative viability (RERF-LC-KJ; first compound 0.253 µM): 1.56
- relative viability (RERF-LC-KJ; first compound 0.8 µM): 1.24
- relative viability (RERF-LC-KJ; first compound 2.53 µM): 1.35
- relative viability (RERF-LC-KJ; first compound 8 µM): 1.42
- relative viability (LK-2; first compound 0.08 µM): 0.184
- relative viability (LK-2; first compound 0.253 µM): 0.184
- relative viability (LK-2; first compound 0.8 µM): 0.151
- relative viability (LK-2; first compound 2.53 µM): 0.22
- relative viability (LK-2; first compound 8 µM): 0.176
- relative viability (NCI-H661; first compound 0.08 µM): 0.914
- relative viability (NCI-H661; first compound 0.253 µM): 0.939
- relative viability (NCI-H661; first compound 0.8 µM): 0.893
- relative viability (NCI-H661; first compound 2.53 µM): 0.897
- relative viability (NCI-H661; first compound 8 µM): 0.891
- relative viability (PC-14; first compound 0.08 µM): 0.155
- relative viability (PC-14; first compound 0.253 µM): 0.15
- relative viability (PC-14; first compound 0.8 µM): 0.165
- relative viability (PC-14; first compound 2.53 µM): 0.168
- relative viability (PC-14; first compound 8 µM): 0.155
- relative viability (NCI-H1650; first compound 0.08 µM): 0.189
- relative viability (NCI-H1650; first compound 0.253 µM): 0.199
- relative viability (NCI-H1650; first compound 0.8 µM): 0.199
- relative viability (NCI-H1650; first compound 2.53 µM): 0.186
- relative viability (NCI-H1650; first compound 8 µM): 0.209
- relative viability (NCI-H2342; first compound 0.08 µM): 0.676
- relative viability (NCI-H2342; first compound 0.253 µM): 0.68
- relative viability (NCI-H2342; first compound 0.8 µM): 0.715
- relative viability (NCI-H2342; first compound 2.53 µM): 0.663
- relative viability (NCI-H2342; first compound 8 µM): 0.731
- relative viability (NCI-H1755; first compound 0.08 µM): 0.425
- relative viability (NCI-H1755; first compound 0.253 µM): 0.614
- relative viability (NCI-H1755; first compound 0.8 µM): 0.378
- relative viability (NCI-H1755; first compound 2.53 µM): 0.641
- relative viability (NCI-H1755; first compound 8 µM): 0.5
- relative viability (EKVX; first compound 0.08 µM): 0.829
- relative viability (EKVX; first compound 0.253 µM): 0.924
- relative viability (EKVX; first compound 0.8 µM): 0.846
- relative viability (EKVX; first compound 2.53 µM): 0.883
- relative viability (EKVX; first compound 8 µM): 0.853
- relative viability (NCI-H322M; first compound 0.08 µM): 0.711
- relative viability (NCI-H322M; first compound 0.253 µM): 0.824
- relative viability (NCI-H322M; first compound 0.8 µM): 0.823
- relative viability (NCI-H322M; first compound 2.53 µM): 0.769
- relative viability (NCI-H322M; first compound 8 µM): 0.849
- relative viability (NCI-H2228; first compound 0.08 µM): 0.139
- relative viability (NCI-H2228; first compound 0.253 µM): 0.106
- relative viability (NCI-H2228; first compound 0.8 µM): 0.129
- relative viability (NCI-H2228; first compound 2.53 µM): 0.146
